Measurements from US4568490A, “Aminopropylaminobleomycin derivatives and process for preparation thereof” (Zaidan Hojin Biseibutsu Kagaku Kenkyu Kai, priority 1981, dated 1986).

Experiments:
[1] = system: Hela S3 cells; assay: Growth inhibitory activity against Hela S3 cells; format: cell-based; conditions: Cu-free form; Hela S3, 3 days incubation with compound
Experimental: The percentage growth inhibition was calculated using the equation: […] wherein A is the ultimate number of cells on the third day from the addition of a test sample, B is the ultimate number of cells in the control (without the addition of test sample), and C is the number of cells on the day of addition of the test sample.

[2] = system: ICR mice; assay: Pulmonary toxicity (pulmonary fibrosis) in mice, intratracheal instillation; format: in vivo; conditions: 16 μg/50 μl/mouse intratracheally, sacrificed 4 weeks after instillation; for Grade: total score of pulmonary fibrosis/total number of samples: score 0-6 points
Experimental: Male 15 weeks old ICR mice were used. Sixteen μg/50 μl/mouse of each test sample was intratracheally instilled. The mice were sacrificed 4 weeks after instillation to examine the incidence and grade of pulmonary fibrosis. The evaluation was made by comparing the number of administered mice suffering from pulmonary fibrosis and the grade of the disease.
(§1) In Tables 4A and 4B, the grade was numerically rated as follows:
(§2) 1 point: Accumulation of exudate in pulmonary alveoli and fibrosis-like change in alveolar septum.
(§3) 2 points: Fibrosis in several areas.
(§4) 4 points: Scattered fibrosis.
(§5) 6 points: Fibrosis in more than two-thirds of the total area.

[3] = system: Bacillus subtilis; assay: Antimicrobial activity, agar plate-cylinder method; format: cell-based; conditions: Cu-free form; bleomycin A2 (Cu-free form) standard assumed 1,000 mcg/mg
Experimental: (1) Antimicrobial activity against Mycobacterium smegmatis ATCC 697 and Bacillus subtilis.
(§6) The activity was assayed against the above test microorganisms by the method of agar plate-cylinder, assuming the potency of bleomycin A2 (Cu-free form), used as standard, to be 1,000 mcg/mg.

[4] = system: Mycobacterium smegmatis ATCC 607; assay: Antimicrobial activity, agar plate-cylinder method; format: cell-based; conditions: Cu-free form; bleomycin A2 (Cu-free form) standard assumed 1,000 mcg/mg
Experimental: as §6

[5] = system: ICR strain mice; assay: Pulmonary toxicity (pulmonary fibrosis) in mice, intraperitoneal injection; format: in vivo; conditions: 5 mg/kg i.p. once a day for 10 days; for Grade of pulmonary fibrosis, % / Incidence of pulmonary fibrosis, % / Incidence: number of mice suffering from pulmonary fibrosis / Grade: total score of pulmonary fibrosis/total number of test animal: autopsy after 5 weeks; for Incidence: number of mice suffering from pulmonary fibrosis: affected/total mice; for Grade: total score of pulmonary fibrosis/total number of test animal: score 0-6 points; for Grade of pulmonary fibrosis, Ratio / Incidence of pulmonary fibrosis, Ratio: reference of the ratio not stated
Experimental: (3) Pulmonary toxicity (pulmonary fibrosis) in mice.
ICR strain mice (male; 15 weeks old; 9 mice per group) were used. Each mouse was administered with a daily dose of 5 mg/kg of the test sample by intraperitoneal injection, once a day, for 10 consecutive days. After completion of the predetermined administration, the mice were kept for 5 weeks under observation, then slaughtered, and autopsied to examine the incidence and grade of pulmonary fibrosis. The evaluation was made by comparing the number of administered mice suffering from pulmonary fibrosis and the grade of the disease.
as §1, §2, §3, §4, §5

Row | Compound | 50% growth inhibition concentration (ID50) of Cu--free compound against cultured Hela cell [1] [µg/mL] | Grade of pulmonary fibrosis, % [2] [%] | Incidence of pulmonary fibrosis, % [2] [%] | Incidence: number of mice with pulmonary fibrosis/number of mice [2] | Grade: total score of pulmonary fibrosis/total number of samples [2] | Antimicrobial potency of Cu--free compound, against Bacillus subtilis [3] [mcg potency per mg] | Antimicrobial potency of Cu--free compound, against Mycobacterium smegmatis ATCC 607 [4] [mcg potency per mg] | Grade of pulmonary fibrosis, % [5] [%] | Incidence of pulmonary fibrosis, % [5] [%] | Incidence: number of mice suffering from pulmonary fibrosis [5] | Grade: total score of pulmonary fibrosis/total number of test animal [5] | Grade of pulmonary fibrosis, Ratio [5] | Incidence of pulmonary fibrosis, Ratio [5]
1 | COc1ccc(CNCCCN(C)CCCNC(=O)c2csc(-c3csc(CCNC(=O)C(NC(=O)C(C)C(O)C(C)NC(=O)C(NC(=O)c4nc(C(CC(N)=O)NCC(N)C(N)=O)nc(N)c4C)C(OC4OC(CO)C(O)C(O)C4OC4OC(CO)C(O)C(OC(N)=O)C4O)c4cnc[nH]4)C(C)O)n3)n2)c(OC)c1 (centres unmarked) [compound 13, 3-{N--Methyl-N--[3'-(o,p-dimethoxybenzylamino)propyl]amino}propylaminoBLM] | 1.30 | 15 | 22 | 2/9 | 4/27 | 5312 | 5351 | 11 | 33 | 2/6 | 2/18 | 0.13 | 0.53
2 | Cc1c(N)nc(C(CC(N)=O)NCC(N)C(N)=O)nc1C(=O)NC(C(=O)NC(C)C(O)C(C)C(=O)NC(C(=O)NCCc1nc(-c2nc(C(=O)NCCCN(C)CCCNCc3ccc(Cl)cc3Cl)cs2)cs1)C(C)O)C(OC1OC(CO)C(O)C(O)C1OC1OC(CO)C(O)C(OC(N)=O)C1O)c1cnc[nH]1 (centres unmarked) [compound 8, 3-{N--Methyl-N--[3'-(o,p-dichlorobenzylamino)propyl]amino}propylaminoBLM] | 1.05 | 25 | 25 | 2/8 | 6/24 | 2940 | 13013 | 7 | 11 | 1/9 | 2/27 | 0.08 | 0.18
3 | Cc1c(N)nc(C(CC(N)=O)NCC(N)C(N)=O)nc1C(=O)NC(C(=O)NC(C)C(O)C(C)C(=O)NC(C(=O)NCCc1nc(-c2nc(C(=O)NCCCN(C)CCCNCc3ccc(Cl)c(Cl)c3)cs2)cs1)C(C)O)C(OC1OC(CO)C(O)C(O)C1OC1OC(CO)C(O)C(OC(N)=O)C1O)c1cnc[nH]1 (centres unmarked) [compound 7, 3-{N--Methyl-N--[3'-(m,p-dichlorobenzylamino)propyl]amino}propylaminoBLM] | 0.82 | 13 | 30 | 3/10 | 4/30 | 4263 | 10601 | 4 | 11 | 1/9 | 1/27 | 0.05 | 0.18
4 | Cc1c(N)nc(C(CC(N)=O)NCC(N)C(N)=O)nc1C(=O)NC(C(=O)NC(C)C(O)C(C)C(=O)NC(C(=O)NCCc1nc(-c2nc(C(=O)NCCCN(C)CCCNC(C)c3ccc(Cl)cc3)cs2)cs1)C(C)O)C(OC1OC(CO)C(O)C(O)C1OC1OC(CO)C(O)C(OC(N)=O)C1O)c1cnc[nH]1 (centres unmarked) [compound 14, 3-{N--Methyl-N--[3'-(1"-p-chlorophenylethylamino)propyl]amino}propylaminoBLM] | 0.52 | 24 | 57 | 4/7 | 5/21 | 5459 | 16959 | 11 | 22 | 2/9 | 3/27 | 0.13 | 0.35
5 | Cc1c(N)nc(C(CC(N)=O)NCC(N)C(N)=O)nc1C(=O)NC(C(=O)NC(C)C(O)C(C)C(=O)NC(C(=O)NCCc1nc(-c2nc(C(=O)NCCCN(C)CCCN(Cc3ccc(OCC4CCCCCCC4)cc3)Cc3ccc(OCC4CCCCCCC4)cc3)cs2)cs1)C(C)O)C(OC1OC(CO)C(O)C(O)C1OC1OC(CO)C(O)C(OC(N)=O)C1O)c1cnc[nH]1 (centres unmarked) [compound 52, 3-{N--Methyl-N--[3'-(bis(p-cyclooctylmethyloxybenzyl)amino)propyl)amino}propylaminoBLM] | 0.13 |  |  |  |  | 49 | 268 | 0 | 0 | 0/9 | 0/27 | 0.00 | 0.00
6 | Cc1c(N)nc(C(CC(N)=O)NCC(N)C(N)=O)nc1C(=O)NC(C(=O)NC(C)C(O)C(C)C(=O)NC(C(=O)NCCc1nc(-c2nc(C(=O)NCCCN(C)CCCN(Cc3ccc(OCc4ccc(Cl)c(Cl)c4)c(OCc4ccc(Cl)c(Cl)c4)c3)Cc3ccc(OCc4ccc(Cl)c(Cl)c4)c(OCc4ccc(Cl)c(Cl)c4)c3)cs2)cs1)C(C)O)C(OC1OC(CO)C(O)C(O)C1OC1OC(CO)C(O)C(OC(N)=O)C1O)c1cnc[nH]1 (centres unmarked) [compound 49, 3-{N--Methyl-N--[3'(bis(3",4"-di(m,p-dichlorobenzyloxy)benzyl)amino)propyl]amino}propylaminoBLM] | 0.063 |  |  |  |  | 8 | 23 | 0 | 0 | 0/9 | 0/27 | 0.00 | 0.00
7 | Cc1c(N)nc(C(CC(N)=O)NCC(N)C(N)=O)nc1C(=O)NC(C(=O)NC(C)C(O)C(C)C(=O)NC(C(=O)NCCc1nc(-c2nc(C(=O)NCCCN(C)CCCNCC(c3ccccc3)c3ccccc3)cs2)cs1)C(C)O)C(OC1OC(CO)C(O)C(O)C1OC1OC(CO)C(O)C(OC(N)=O)C1O)c1cnc[nH]1 (centres unmarked) [compound 17, 3-{N--Methyl-N--[3'-(2",2"-diphenylethylamino)propyl]amino}propylaminoBLM] | 1.00 | 7 | 22 | 2/9 | 2/27 | 3554 | 21084 | 7 | 20 | 1/5 | 1/15 | 0.08 | 0.32
